This passage reports MTD results from US6156789A, “Method for treating abnormal cell proliferation in the brain” (Rhone-Poulenc Rorer S.A., priority 1998, dated 2000).

The nature of this data set: Highest non toxic dose in the mouse. The following applies: in vivo, iv, read-out: highest non toxic dose (HNTD).

In the case of `CC(=O)O[C@H]1C(=O)[C@]23C[C@H]2C[C@H]2OC[C@@]2(OC(C)=O)[C@H]3[C@H](OC(=O)c2ccccc2)[C@]2(O)C[C@H](OC(=O)[C@H](O)[C@@H](NC(=O)OC(C)(C)C)c3ccccc3)C(C)=C1C2(C)C` [Compound A, 4α,10β-diacetoxy-2α-benzoyloxy-5β,20-epoxy-1β-hydroxy-7β,8β-methylene-9-oxo-19-nor-11-taxen-13α-yl (2R,3S)-3-tert-butoxycarbonylamino-2-hydroxy-3-phenylpropionate], the MTD is 40 mg/kg.
